Activity calls are given as the source filed them. The rule behind the calls is not given here. Square brackets hold non-standard residues; d marks the D form. Peptide text beside a SMILES is read from it. ξ: configuration not given here. Thr(3ξ) = CC(O)[C@H](N)C(=O)O; NMeV = CN[C@H](C(=O)O)C(C)C; NMeA = CN[C@@H](C)C(=O)O; Sar = CNCC(=O)O

The source of these data is ChEMBL document CHEMBL6103620, “Gymnopeptides C and D, Highly N-Methylated Fungal Cyclopeptides” (J Nat Prod, 2025).

Assay [1] concerns A-375. Description: Antiproliferative activity against human A-375 cells assessed as reduction in cell viability incubated for 72 hrs by MTT assay. Format: functional, cell-based. In general terms: Tetrazolium dyes change colour on reduction, which living cells bring about.
The subject of the next assay is HaCaT. Kind of assay: Antiproliferative activity against human HaCaT cells assessed as reduction in cell viability incubated for 72 hrs by MTT assay. Format: functional, cell-based.
Assay [2] deals with A-375. Kind of assay: Induction of apoptosis in human A-375 cells assessed as increase in caspase-3 activity at 50 nM incubated for 24 hrs. Format: functional, cell-based.
The test system of assay [3] is A-375. Kind of assay: Inhibition of cell migration in human A-375 cells assessed as reduction in cell numbers in wound area at 5 nM incubated for 72 hrs by methyl green staining based scratch assay. The assay is classed as functional.
Assay [4] relates to A-375. Description: Inhibition of cell migration in human A-375 cells assessed as decrease in number of cell migration into lower compartment at 50 nM measured after 16 hrs. The assay is classed as functional, cell-based.

Turning to `CC(C)[C@@H]1NC(=O)[C@H](C(C)C)N(C)C(=O)[C@H](C)NC(=O)[C@H](C(C)C)N(C)C(=O)[C@H](C(C)C)NC(=O)[C@H](C(C)C)N(C)C(=O)[C@H](C(C)C)NC(=O)[C@H](C(C)C)N(C)C(=O)[C@H](C(C)O)NC(=O)[C@H](C(C)C)N(C)C(=O)[C@H](C)NC(=O)[C@H](C(C)C)N(C)C(=O)[C@H](C)NC(=O)CN(C)C(=O)[C@H](C(C)C)NC(=O)[C@H](C)N(C)C(=O)[C@H](C(C)C)N(C)C(=O)CN(C)C1=O` (stereo not given in full) (cyclo(A[NMeV]A[NMeV][Thr(3ξ)][NMeV]V[NMeV]V[NMeV]A[NMeV]V[Sar][NMeV][NMeA]V[Sar])), the Activity result with A-375 [1] and with HaCaT was “Dose-dependent-effect” each time. Moreover, in the assay on A-375 [2], the outcome was Active. Besides, the inhibition result in the assay with A-375 [3] was “Active; Significant Effect Observed”. Also, the inhibition result in the assay on A-375 [4] is “Active”.
Consider `CC(C)[C@@H]1NC(=O)[C@H](C(C)C)N(C)C(=O)[C@H](C)NC(=O)[C@H]([C@H](C)O)N(C)C(=O)[C@H](C(C)C)NC(=O)[C@@H]2CCCN2C(=O)[C@H](C(C)C)NC(=O)[C@H](C)N(C)C(=O)[C@H](C(C)C)N(C)C(=O)CN(C)C(=O)[C@H](C)NC(=O)[C@H](C(C)C)N(C)C(=O)[C@H](C)NC(=O)[C@H](C(C)C)N(C)C(=O)[C@H](C(C)C)NC(=O)[C@H](C(C)C)N(C)C(=O)[C@H](C(C)C)NC(=O)[C@H](C(C)C)N(C)C1=O`, for which the Activity result in the assay on A-375 [1] and with HaCaT was “Dose-dependent-effect” throughout. In the assay on A-375 [2], the outcome was Active. The inhibition result in the assay on A-375 [3] is “Active; Significant Effect Observed”. Further, in the assay with A-375 [4], the inhibition result was “Active”.
With `CC(C)[C@@H]1NC(=O)[C@H](C(C)C)N(C)C(=O)[C@H](C)NC(=O)[C@H](C(C)C)N(C)C(=O)[C@H](C(C)C)NC(=O)[C@H](C(C)C)N(C)C(=O)[C@H](C(C)C)NC(=O)[C@H](C(C)C)N(C)C(=O)[C@H](CO)NC(=O)[C@H](C(C)C)N(C)C(=O)[C@H](C)NC(=O)[C@H](C(C)C)N(C)C(=O)[C@H](C)NC(=O)CN(C)C(=O)[C@H](C(C)C)NC(=O)[C@H](C)N(C)C(=O)[C@H](C(C)C)N(C)C(=O)CN(C)C1=O` (cyclo(A[NMeV]A[NMeV]S[NMeV]V[NMeV]V[NMeV]A[NMeV]V[Sar][NMeV][NMeA]V[Sar])), the Activity result with A-375 [1] is “Dose-dependent-effect”; with HaCaT, “Dose-dependent-effect”; with A-375 [2], “Active; Significant Effect Was Not Observed”. In addition, the inhibition result in the assay with A-375 [3] was “Active; Significant Effect Observed”. Also, in the assay on A-375 [4], the inhibition entry is “Active”.
Consider `CC(C)[C@@H]1NC(=O)[C@H](C(C)C)N(C)C(=O)[C@H]([C@@H](C)O)NC(=O)[C@H](C(C)C)N(C)C(=O)[C@H](C(C)C)NC(=O)[C@H](C(C)C)N(C)C(=O)[C@H](C(C)C)NC(=O)[C@H](C(C)C)N(C)C(=O)[C@H](C(C)C)NC(=O)[C@H](C(C)C)N(C)C(=O)[C@H](C)NC(=O)[C@@H]([C@@H](C)O)N(C)C(=O)[C@H](C(C)C)NC(=O)[C@@H]2CCCN2C(=O)[C@H](C)NC(=O)[C@H](C)N(C)C(=O)[C@H](C(C)C)N(C)C(=O)CN(C)C1=O`, for which the Activity result in the assay on A-375 [1] and in the assay on HaCaT was “Dose-dependent-effect” each time. The result in the assay on A-375 [2] was Active. Also, the inhibition entry in the assay with A-375 [3] is “Active; Significant Effect Observed”. The inhibition result with A-375 [4] is “Active”.
